Key:
CfEcR-DEF mutant F109L = CfEcR-DEF mutant F109L (Choristoneura fumiferana, UniProt O77255, F392L); experiment: cell-based; settings: for Emax: NIH3T3, 40 h, read-out: Rel Max FI
Experimental: (§1) This construct was prepared in the same way as in switch 1.1 above except wild-type CfEcR-DEF was replaced with mutant CfEcR-DEF comprising a ligand binding domain comprising a substitution mutation selected from Table 1 below.
(§2) DNAs were transfected into mouse NIH3T3 cells (ATCC) as follows. Standard methods for culture and maintenance of the cells were followed. Cells were harvested and plated 96-well plates at 2,500 cells per well, in 50 μL of growth medium containing 10% fetal bovine serum (FBS). Twenty-four hours later, the cells were treated with 35 μL of serum-free growth medium containing either dimethylsulfoxide (DMSO; control) or a DMSO solution of ligand. The cells were then transfected using Superfect (Qiagen Inc.) transfection reagent. For each well, 0.625 μL of Superfect was mixed with 14.2 μL of serum-free growth medium. 0.16 μg of reporter construct and 0.04 μg of each receptor construct were added to the transfection reagent mix. The contents of the transfection mix were mixed in a vortex mixer and let stand at room temperature for 30 minutes. At the end of incubation, 15 μL of transfection mix was added to the cells. The cells were maintained at 37° C. and 5% CO2 for 48 hours in 5% FBS.
(§3) Reporter Assays: Cells were harvested 40 hours after adding ligands. 125 μL of passive lysis buffer (part of Dual-Luciferase reporter assay system from Promega Corporation) were added to each well of the […] plate. The plates were placed on a rotary shaker for 15 minutes. Twenty μL of lysate were assayed. Luciferase activity was measured using Dual-Luciferase reporter assay system from Promega Corporation following the manufacturer's instructions. Fold induction (FI) activities were calculated by dividing relative light units (“RLU”) in ligand treated cells with RLU in DMSO treated cells (untreated control).

CfEcR-DEF mutant I51L = CfEcR-DEF mutant I51L (Choristoneura fumiferana, UniProt O77255, I334L); experiment: cell-based; settings: for Emax: NIH3T3, 40 h, read-out: Rel Max FI
Sequence of CfEcR-DEF mutant I51L (O77255 entry or part of it I334L): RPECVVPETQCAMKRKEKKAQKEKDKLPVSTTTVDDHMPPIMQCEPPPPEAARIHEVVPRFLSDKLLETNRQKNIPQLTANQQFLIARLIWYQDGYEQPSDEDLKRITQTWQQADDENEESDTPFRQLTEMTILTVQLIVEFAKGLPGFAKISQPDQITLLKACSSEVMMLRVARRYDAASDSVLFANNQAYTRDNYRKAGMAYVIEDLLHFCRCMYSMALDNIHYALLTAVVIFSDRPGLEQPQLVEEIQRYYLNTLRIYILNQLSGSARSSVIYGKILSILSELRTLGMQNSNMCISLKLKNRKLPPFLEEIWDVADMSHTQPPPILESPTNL
Sequence of CfEcR-DEF mutant I51L (P28702 299-449, further chain): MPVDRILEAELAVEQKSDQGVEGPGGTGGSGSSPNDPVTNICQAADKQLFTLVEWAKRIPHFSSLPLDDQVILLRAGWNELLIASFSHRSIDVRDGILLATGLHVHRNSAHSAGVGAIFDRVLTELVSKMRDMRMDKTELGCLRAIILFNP
Experimental: as §1, §2, §3

CfEcR-DEF mutant L234I = CfEcR-DEF mutant L234I (Choristoneura fumiferana, UniProt O77255, L517I); experiment: cell-based; settings: for Emax: NIH3T3, 40 h, read-out: Rel Max FI
Sequence of CfEcR-DEF mutant L234I (P28702 299-449): as the sequence (P28702 299-449, further chain) above
Sequence of CfEcR-DEF mutant L234I (O77255 entry or part of it L517I): as the sequence (O77255 entry or part of it I334L) above, with L128I, L311I counted along it
Experimental: as §1, §2, §3

CfEcR-DEF mutant M125E = CfEcR-DEF mutant M125E (Choristoneura fumiferana, UniProt O77255, M408E); experiment: cell-based; settings: for Emax: NIH3T3, 40 h, read-out: Rel Max FI
Sequence of CfEcR-DEF mutant M125E (O77255 entry or part of it M408E): as the sequence (O77255 entry or part of it I334L) above, with L128I, M202E counted along it
Sequence of CfEcR-DEF mutant M125E (P28702 299-449, further chain): as the sequence (P28702 299-449, further chain) above
Experimental: as §1, §2, §3

CfEcR-DEF mutant M125L = CfEcR-DEF mutant M125L (Choristoneura fumiferana, UniProt O77255, M408L); experiment: cell-based; settings: for Emax: NIH3T3, 40 h, read-out: Rel Max FI
Sequence of CfEcR-DEF mutant M125L (P28702 299-449): as the sequence (P28702 299-449, further chain) above
Sequence of CfEcR-DEF mutant M125L (O77255 entry or part of it M408L): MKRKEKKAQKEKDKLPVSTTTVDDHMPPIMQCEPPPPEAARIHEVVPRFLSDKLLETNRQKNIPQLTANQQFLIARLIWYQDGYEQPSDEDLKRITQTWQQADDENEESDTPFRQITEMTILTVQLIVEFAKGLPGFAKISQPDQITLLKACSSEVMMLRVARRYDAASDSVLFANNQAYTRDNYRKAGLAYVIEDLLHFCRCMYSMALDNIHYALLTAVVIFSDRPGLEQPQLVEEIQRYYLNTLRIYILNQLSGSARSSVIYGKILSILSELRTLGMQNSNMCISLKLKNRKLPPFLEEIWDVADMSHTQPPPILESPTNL
Experimental: as §1, §2, §3

CfEcR-DEF mutant M125R = CfEcR-DEF mutant M125R (Choristoneura fumiferana, UniProt O77255, M408R); experiment: cell-based; settings: for Emax: NIH3T3, 40 h, read-out: Rel Max FI
Experimental: as §1, §2, §3

CfEcR-DEF mutant M54T = CfEcR-DEF mutant M54T (Choristoneura fumiferana, UniProt O77255, M337T); experiment: cell-based; settings: for Emax: NIH3T3, 40 h, read-out: Rel Max FI
Experimental: as §1, §2, §3

CfEcR-DEF mutant M92E = CfEcR-DEF mutant M92E (Choristoneura fumiferana, UniProt O77255, M375E); experiment: cell-based; settings: for Emax: NIH3T3, 40 h, read-out: Rel Max FI
Experimental: as §1, §2, §3

CfEcR-DEF mutant M92L = CfEcR-DEF mutant M92L (Choristoneura fumiferana, UniProt O77255, M375L); experiment: cell-based; settings: for Emax: NIH3T3, 40 h, read-out: Rel Max FI
Sequence of CfEcR-DEF mutant M92L (O77255 entry or part of it M375L): as the sequence (O77255 entry or part of it M408L) above, with M157L, L190M counted along it
Sequence of CfEcR-DEF mutant M92L (P28702 299-449, further chain): as the sequence (P28702 299-449, further chain) above
Experimental: as §1, §2, §3

CfEcR-DEF mutant R95H = CfEcR-DEF mutant R95H (Choristoneura fumiferana, UniProt O77255, R378H); experiment: cell-based; settings: for Emax: NIH3T3, 40 h, read-out: Rel Max FI
Sequence of CfEcR-DEF mutant R95H (P28702 299-449): as the sequence (P28702 299-449, further chain) above
Sequence of CfEcR-DEF mutant R95H (O77255 entry or part of it R378H): as the sequence (O77255 entry or part of it M408L) above, with R160H, L190M counted along it
Experimental: as §1, §2, §3

CfEcR-DEF mutant R95M = CfEcR-DEF mutant R95M (Choristoneura fumiferana, UniProt O77255, R378M); experiment: cell-based; settings: for Emax: NIH3T3, 40 h, read-out: Rel Max FI
Experimental: as §1, §2, §3

CfEcR-DEF mutant T52E = CfEcR-DEF mutant T52E (Choristoneura fumiferana, UniProt O77255, T335E); experiment: cell-based; settings: for Emax: NIH3T3, 40 h, read-out: Rel Max FI
Experimental: as §1, §2, §3

CfEcR-DEF mutant T52L = CfEcR-DEF mutant T52L (Choristoneura fumiferana, UniProt O77255, T335L); experiment: cell-based; settings: for Emax: NIH3T3, 40 h, read-out: Rel Max FI
Sequence of CfEcR-DEF mutant T52L (P28702 298-449): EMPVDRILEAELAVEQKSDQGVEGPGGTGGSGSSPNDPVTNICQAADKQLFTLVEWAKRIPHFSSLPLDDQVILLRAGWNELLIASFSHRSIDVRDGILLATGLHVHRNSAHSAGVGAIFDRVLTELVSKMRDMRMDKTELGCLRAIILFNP
Sequence of CfEcR-DEF mutant T52L (O77255 entry or part of it T335L): as the sequence (O77255 entry or part of it I334L) above, with L128I, T129L counted along it
Experimental: as §1, §2, §3

[1] = target: CfEcR-DEF mutant V107I/Y127E/A110P (Choristoneura fumiferana, UniProt O77255, A393P/V390I/Y410E); experiment: cell-based; settings: for Emax: NIH3T3, 40 h, read-out: Rel Max FI
Experimental: as §1, §2, §3

[2] = target: CfEcR-DEF mutant V128F/A110P (Choristoneura fumiferana, UniProt O77255, A393P/V411F); experiment: cell-based
Sequence of CfEcR-DEF mutant V128F/A110P (P28702 299-449, stated change not applied): as the sequence (P28702 299-449, further chain) above
Sequence of CfEcR-DEF mutant V128F/A110P (O77255 entry or part of it A393P/V411F): as the sequence (O77255 entry or part of it M408L) above, with A175P, L190M, V193F counted along it
Experimental: as §1, §2, §3

CfEcR-DEF mutant V96L = CfEcR-DEF mutant V96L (Choristoneura fumiferana, UniProt O77255, V379L); experiment: cell-based; settings: for Emax: NIH3T3, 40 h, read-out: Rel Max FI
Sequence of CfEcR-DEF mutant V96L (O77255 entry or part of it V379L): as the sequence (O77255 entry or part of it M408L) above, with V161L, L190M counted along it
Sequence of CfEcR-DEF mutant V96L (P28702 299-449, further chain): as the sequence (P28702 299-449, further chain) above
Experimental: as §1, §2, §3

CfEcR-DEF mutant V96S = CfEcR-DEF mutant V96S (Choristoneura fumiferana, UniProt O77255, V379S); experiment: cell-based; settings: for Emax: NIH3T3, 40 h, read-out: Rel Max FI
Experimental: as §1, §2, §3

CfEcR-DEF mutant W238Y = CfEcR-DEF mutant W238Y (Choristoneura fumiferana, UniProt O77255, W521Y); experiment: cell-based; settings: for Emax: NIH3T3, 40 h, read-out: Rel Max FI
Experimental: as §1, §2, §3

[3] = target: CfEcR-DEF mutant V107I/Y127E/G (Choristoneura fumiferana, UniProt O77255, INS541G/V390I/Y410E); experiment: GAL4-driven luciferase reporter assay in NIH3T3 cells; type: cell-based; settings: for Emax: NIH3T3, 40 h, read-out: Rel Max FI
Experimental: as §1
The Gal-4-CfEcR-DEF(VYG) mutant was created by inserting an extra glycine at the C-terminal end of EcR substitution mutant V107I/Y127E [CfECR(VY)] by PCR. Essentially, this was done in two steps: PCR-amplification of CfEcR-DEF(VYG) and substitution of the CfEcR(VY) in the vector GAL4-CfEcR DEF(VY) pBIND 1-9 with the PCR-amplified CfEcR-DEF(VYG). The CfEcR-DEF region (with the extra glycine) was amplified by using the vector GAL4-CfEcR DEF(VY) pBIND 1-9 as template and the following PCR primers: […]
as §2, §3

Row | SMILES | EC50 (CfEcR-DEF mutant F109L) [nM] | Emax (CfEcR-DEF mutant F109L) [%] | EC50 (CfEcR-DEF mutant I51L) [nM] | Emax (CfEcR-DEF mutant I51L) [%] | EC50 (CfEcR-DEF mutant L234I) [nM] | Emax (CfEcR-DEF mutant L234I) [%] | EC50 (CfEcR-DEF mutant M125E) [nM] | Emax (CfEcR-DEF mutant M125E) [%] | EC50 (CfEcR-DEF mutant M125L) [nM] | Emax (CfEcR-DEF mutant M125L) [%] | EC50 (CfEcR-DEF mutant M125R) [nM] | Emax (CfEcR-DEF mutant M125R) [%] | EC50 (CfEcR-DEF mutant M54T) [nM] | Emax (CfEcR-DEF mutant M54T) [%] | EC50 (CfEcR-DEF mutant M92E) [nM] | Emax (CfEcR-DEF mutant M92E) [%] | EC50 (CfEcR-DEF mutant M92L) [nM] | Emax (CfEcR-DEF mutant M92L) [%] | EC50 (CfEcR-DEF mutant R95H) [nM] | Emax (CfEcR-DEF mutant R95H) [%] | further results
1 | CCc1cccc(C(=O)NN(C(=O)c2cc(C)cc(C)c2)C(C)(C)C)c1C [RG-101691, 3,5-Dimethyl-benzoic acid N-tert-butyl-N′-(3-ethyl-2-methyl-benzoyl)-hydrazide] | 2340 | 68 | 2280 | 88 | 940 | 73 | 980 | 53 | > 33000 | 0 | ~10000 | 1 | 30 | 71 | ~20000 | 8 | 9900 | 41 | 3900 | 96 | EC50 (CfEcR-DEF mutant R95M): 3300 nM; Emax (CfEcR-DEF mutant R95M): 57%; EC50 (CfEcR-DEF mutant T52E): ~7000 nM; Emax (CfEcR-DEF mutant T52E): 57%; EC50 (CfEcR-DEF mutant T52L): 210 nM; Emax (CfEcR-DEF mutant T52L): 74%; EC50 [1]: 340 nM; Emax [1]: 96%; EC50 [2]: ~5000 nM; Emax ([2]; NIH3T3, 40 h, read-out: Rel Max FI): 8%; Rel Max FI ([2]; mutant V128F/A110P, 2400 min): 0.08; EC50 (CfEcR-DEF mutant V96L): 1680 nM; Emax (CfEcR-DEF mutant V96L): 62%; EC50 (CfEcR-DEF mutant V96S): 870 nM; Emax (CfEcR-DEF mutant V96S): 90%; EC50 (CfEcR-DEF mutant W238Y): > 33000 nM; Emax (CfEcR-DEF mutant W238Y): 30%; EC50 [3]: 20 nM; Emax [3]: 85%
2 | Cc1cc(C)cc(C(=O)N(NC(=O)c2cccc(C(C)C)c2C)C(C)(C)C)c1 [RG-102362, 3,5-Dimethyl-benzoic acid N-tert-butyl-N′-(3-isopropyl-2-methyl-benzoyl)-hydrazide] | ~2500 | 17 | 3350 | 53 | 2460 | 44 | 830 | 40 | > 33000 | 1 | 10400 | 0 | 50 | 66 | > 33000 | 4 | ~20000 | 5 | 3490 | 62 | EC50 (CfEcR-DEF mutant R95M): 4280 nM; Emax (CfEcR-DEF mutant R95M): 27%; EC50 (CfEcR-DEF mutant T52E): 7160 nM; Emax (CfEcR-DEF mutant T52E): 34%; EC50 (CfEcR-DEF mutant T52L): 330 nM; Emax (CfEcR-DEF mutant T52L): 61%; EC50 [1]: 100 nM; Emax [1]: 63%; EC50 (CfEcR-DEF mutant V96L): 2670 nM; Emax (CfEcR-DEF mutant V96L): 58%; EC50 (CfEcR-DEF mutant V96S): 2070 nM; Emax (CfEcR-DEF mutant V96S): 57%; EC50 (CfEcR-DEF mutant W238Y): > 33000 nM; Emax (CfEcR-DEF mutant W238Y): 6%; EC50 [3]: 60 nM; Emax [3]: 81%
